Laboratory results from patent publication US7067524B2, “Substituted phenyl naphthalenes as estrogenic agents” (Wyeth, priority 2001, dated 2006).
Where two headings read alike, the source gives them in different places.

What was measured:
[1] = test system: Sexually immature 129 SvE mice; experiment: Mouse uterotrophic test procedure (Procedure 2); type: in vivo; settings: 50 mg/kg/day sc, days 22-25
[2] = test system: Progesterone receptor mRNA; experiment: Progesterone receptor mRNA regulation in the preoptic area of the rat brain; type: in vivo
[3] = test system: casein kinase II mRNA; experiment: Rat mammotrophic assay (mammary end bud test procedure); type: in vivo; settings: ovariectomized rats, with progesterone 30 mg/kg
[4] = test system: Sexually immature Sprague-Dawley rats; experiment: Rat uterotrophic test procedure (Procedure 1); type: in vivo
[5] = test system: Lewis rats; experiment: Lewis rat adjuvant-induced arthritis, inhibition protocol; type: in vivo
[6] = test system: Lewis rats; experiment: Lewis rat adjuvant-induced arthritis, treatment protocol; type: in vivo; settings: for Joint inflammation score: 10 mg/kg sc daily from Day 8 after adjuvant
[7] = test system: HLA-B27 rats; settings: for Stool score (group's average score): 2=soft stool, 1=normal stool
[8] = test system: HLA-B27 rats; settings: for Joint inflammation score: 10 mg/kg orally once per day
[9] = test system: metallothionein-II mRNA in Saos-2 cells; experiment: Regulation of metallothionein-II mRNA in Saos-2 cells; type: cell-based; parameters: unit not given here; settings: column head not given
[10] = Mankin scores, tarsal joints, 10 mg/kg, mean ± SD
[11] = synovitis histology, tarsal joints, 10 mg/kg, mean ± SD
[12] = colon histological score, 10 mg/kg orally for 46 days
[13] = joint histology, 10 mg/kg orally for 46 days

## C[C@]12CC[C@@H]3c4ccc(O)cc4CC[C@H]3[C@@H]1CC[C@@H]2O [17β-estradiol, reference compound]
[1]
  mean uterine weight (mg) ± SEM: 45.3 ± 1.9 mg
[2]; 30 μg/kg
  Progesterone receptor mRNA (arbitrary units; mean ± stdev): 557.1 ± 80.6 arbitrary units
[3]; 0.1 mg/kg sc 6 days
  Casein kinase II mRNA/18S rRNA (mean ± SEM): 39.0 ± 5.4

## N#Cc1cc(-c2ccc(O)c(F)c2)cc2ccc(O)cc12 [Example 1av, 3-(3-Fluoro-4-hydroxyphenyl)-7-hydroxy-1-naphthonitrile]
[4]; 2 mg/rat/day coadministered with 17α-ethinyl-17β-estradiol 0.06 μg/rat/day (antagonist mode)
  mean uterine weight (mg) ± SEM: 81.9 ± 4.2 mg
[4]; 2 mg/rat/day sc, days 19-21
  mean uterine weight (mg) ± SEM: 23.3 ± 1.3 mg
[1]
  mean uterine weight (mg) ± SEM: 12.6 ± 0.8 mg
[2]; 10 mg/kg
  Progesterone receptor mRNA (arbitrary units; mean ± stdev): 33.7 ± 20.6 arbitrary units
[3]; 20 mg/kg sc 6 days
  Casein kinase II mRNA/18S rRNA (mean ± SEM): 1.06 ± 0.17
[5]; sc daily from Day 1, Day 1, maximal score 12
  Joint inflammation score: 0.00
[5]; sc daily from Day 1, Day 2, maximal score 12
  Joint inflammation score: 0.00
[5]; sc daily from Day 1, Day 3, maximal score 12
  Joint inflammation score: 2.66
[5]; sc daily from Day 1, Day 4, maximal score 12
  Joint inflammation score: 1.83
[5]; sc daily from Day 1, Day 5, maximal score 12
  Joint inflammation score: 2.66
[5]; sc daily from Day 1, Day 6, maximal score 12
  Joint inflammation score: 2.16
[5]; sc daily from Day 1, Day 7, maximal score 12
  Joint inflammation score: 2.00
[5]; sc daily from Day 1, Day 8, maximal score 12
  Joint inflammation score: 1.66
[5]; sc daily from Day 1, Day 9, maximal score 12
  Joint inflammation score: 2.00
[5]; sc daily from Day 1, Day 10, maximal score 12
  Joint inflammation score: 2.00
[5]; sc daily from Day 1, Day 11, maximal score 12
  Joint inflammation score: 1.66
[5]; sc daily from Day 1, Day 12, maximal score 12
  Joint inflammation score: 1.66
[5]; sc daily from Day 1, Day 13, maximal score 12
  Joint inflammation score: 2.16
[5]; sc daily from Day 1, Day 14, maximal score 12
  Joint inflammation score: 2.00
[5]; sc daily from Day 1, Day 15, maximal score 12
  Joint inflammation score: 2.00
[5]; sc daily from Day 1, Day 16, maximal score 12
  Joint inflammation score: 1.00
[5]; sc daily from Day 1, Day 17, maximal score 12
  Joint inflammation score: 1.33
[6]; Day 1, maximal score 12
  Joint inflammation score: 11.33
[6]; Day 2, maximal score 12
  Joint inflammation score: 10.83
[6]; Day 3, maximal score 12
  Joint inflammation score: 9.33
[6]; Day 4, maximal score 12
  Joint inflammation score: 8.00
[6]; Day 5, maximal score 12
  Joint inflammation score: 5.83
[6]; Day 6, maximal score 12
  Joint inflammation score: 3.33
[6]; Day 7, maximal score 12
  Joint inflammation score: 3.00
[6]; Day 8, maximal score 12
  Joint inflammation score: 2.50
[6]; Day 9, maximal score 12
  Joint inflammation score: 2.50
[6]; Day 10, maximal score 12
  Joint inflammation score: 2.50
[6]; Day 11, maximal score 12
  Joint inflammation score: 2.50
[6]; Day 12, maximal score 12
  Joint inflammation score: 2.50
[6]; Day 13, maximal score 12
  Joint inflammation score: 2.50
[6]; Day 14, maximal score 12
  Joint inflammation score: 2.50
[6]; Day 15, maximal score 12
  Joint inflammation score: 2.00
[6]; Day 16, maximal score 12
  Joint inflammation score: 1.33
[6]; Day 17, maximal score 12
  Joint inflammation score: 1.00
[6]; [10]
  Cartilage Cells (0–3): 0.75 ± 0.42
  Cartilage Structure (0–6): 1.83 ± 0.68
  Saffranin-O/Fast Green Staining (0–4): 1.25 ± 0.52
  Tidemark Integrity (0–1): 0
  Total Mankin Score (0–14): 3.83 ± 1.21
[6]; [11]
  Fibroplasia (0–3): 0.75 ± 0.42
  Inflammatory Cells (0–3): 1.25 ± 0.42
  Pannus (0–1): 0.33 ± 0.61
  Synovial Structure (0–3): 1.58 ± 0.38
  Total Synovitis Score (0–10): 3.83 ± 0.93
[7]; 10 mg/kg orally daily
  Time until stool character normalized: ≤ 21 days
[7]; 10 mg/kg orally daily, Day 1, 3=diarrhea
  Stool score (group's average score): 2.75
[7]; 10 mg/kg orally daily, Day 2, 3=diarrhea
  Stool score (group's average score): 2.5
[7]; 10 mg/kg orally daily, Day 3, 3=diarrhea
  Stool score (group's average score): 2.25
[7]; 10 mg/kg orally daily, Day 4, 3=diarrhea
  Stool score (group's average score): 2.5
[7]; 10 mg/kg orally daily, Day 5, 3=diarrhea
  Stool score (group's average score): 2.25
[7]; 10 mg/kg orally daily, Day 6, 3=diarrhea
  Stool score (group's average score): 2.5
[7]; 10 mg/kg orally daily, Day 7, 3=diarrhea
  Stool score (group's average score): 2.5
[7]; 10 mg/kg orally daily, Day 8, 3=diarrhea
  Stool score (group's average score): 2
[7]; 10 mg/kg orally daily, Day 9, 3=diarrhea
  Stool score (group's average score): 2
[7]; 10 mg/kg orally daily, Day 10, 3=diarrhea
  Stool score (group's average score): 1.5
[7]; 10 mg/kg orally daily, Day 11, 3=diarrhea
  Stool score (group's average score): 1.5
[7]; 10 mg/kg orally daily, Day 12, 3=diarrhea
  Stool score (group's average score): 1.5
[7]; 10 mg/kg orally daily, Day 13, 3=diarrhea
  Stool score (group's average score): 1.75
[7]; 10 mg/kg orally daily, Day 14, 3=diarrhea
  Stool score (group's average score): 1.75
[7]; 10 mg/kg orally daily, Day 15, 3=diarrhea
  Stool score (group's average score): 1.5
[7]; 10 mg/kg orally daily, Day 16, 3=diarrhea
  Stool score (group's average score): 1.5
[7]; 10 mg/kg orally daily, Day 17, 3=diarrhea
  Stool score (group's average score): 1.25
[7]; 10 mg/kg orally daily, Day 18, 3=diarrhea
  Stool score (group's average score): 1.25
[7]; 10 mg/kg orally daily, Day 19, 3=diarrhea
  Stool score (group's average score): 1.25
[7]; 10 mg/kg orally daily, Day 20, 3=diarrhea
  Stool score (group's average score): 1.25
[7]; 10 mg/kg orally daily, Day 21, 3=diarrhea
  Stool score (group's average score): 1.25
[7]; 10 mg/kg orally daily, Day 22, 3=diarrhea
  Stool score (group's average score): 1
[7]; 10 mg/kg orally daily, Day 23, 3=diarrhea
  Stool score (group's average score): 1
[7]; 10 mg/kg orally daily, Day 24, 3=diarrhea
  Stool score (group's average score): 1
[7]; 10 mg/kg orally daily, Day 25, 3=diarrhea
  Stool score (group's average score): 1
[7]; [12]
  Fibrosis (0–2): 0.07 ± 0.13
  Inflammation (0–3): 1.13 ± 0.43
  Lesion depth (0–2): 0.38 ± 0.43
  Total score: 2.00 ± 1.14
  Ulceration (0–2): 0.44 ± 0.43
[8]; Day 29
  Joint inflammation score: 0.5
[8]; Day 30
  Joint inflammation score: 0.5
[8]; Day 31
  Joint inflammation score: 0.5
[8]; Day 32
  Joint inflammation score: 1
[8]; Day 33
  Joint inflammation score: 1.75
[8]; Day 34
  Joint inflammation score: 1.5
[8]; Day 35
  Joint inflammation score: 1
[8]; Day 36
  Joint inflammation score: 1.75
[8]; Day 37
  Joint inflammation score: 1.75
[8]; Day 38
  Joint inflammation score: 1.5
[8]; Day 39
  Joint inflammation score: 0.75
[8]; Day 40
  Joint inflammation score: 0.75
[8]; Day 41
  Joint inflammation score: 0.5
[8]; Day 42
  Joint inflammation score: 1.5
[8]; Day 43
  Joint inflammation score: 1.25
[8]; Day 44
  Joint inflammation score: 1.75
[8]; Day 45
  Joint inflammation score: 1.25
[8]; Day 46
  Joint inflammation score: 0.75
[8]; [13]
  Mankin score (mean ± SD): 4.5 ± 1.8
  Synovitis score (mean ± SD): 5.0 ± 2.5

## Oc1ccc(-c2ccc3cc(O)ccc3c2)cc1 [Example 1e, 6-(4-Hydroxyphenyl)-2-naphthol]
[9]
  Regulation of metallothionein-II mRNA: 17.0

## Oc1ccc2cc(-c3ccc(O)c(Cl)c3)ccc2c1 [Example 1l, 6-(3-Chloro-4-hydroxyphenol)-2-naphthol]
[9]
  Regulation of metallothionein-II mRNA: 5.5

## Oc1ccc(-c2ccc3c(Br)c(O)ccc3c2)cc1 [Example 1o, 1-Bromo-6-(4-hydroxyphenyl)-2-naphthol]
[9]
  Regulation of metallothionein-II mRNA: 5.7

## Oc1ccc(-c2ccc3c(Cl)c(O)ccc3c2)cc1 [Example 1p, 1-Chloro-6-(4-hydroxyphenyl)-2-naphthol]
[9]
  Regulation of metallothionein-II mRNA: 6.0

## N#Cc1c(O)ccc2cc(-c3ccc(O)cc3)ccc12 [Example 1s, 2-Hydroxy-6-(4-hydroxyphenyl)-1-naphthonitrile]
[9]
  Regulation of metallothionein-II mRNA: 4.9
